Experimental data as given in EPA's ToxRefDB 2.

Columns and labels:
mouse [1] = details: Combined chronic toxicity/carcinogenicity, b6c3f1, Oral, Feed, dose end: 2 year
rat [2] = details: Combined chronic toxicity/carcinogenicity, other, Oral, Feed, dose end: 105 week
mouse [3] = details: Carcinogenicity, b6c3f1, Oral, Feed, dose end: 104 week
dog = details: Subchronic oral toxicity in nonrodent, beagle, Capsule, dose end: 5 month
rabbit [4] = details: Prenatal developmental toxicity study, new zealand white, Oral, Gavage/Intubation, dose end: 19 GD
mouse [5] = details: Prenatal developmental toxicity study, cd1, Oral, Gavage/Intubation, dose end: 15 GD
rat [6] = details: Prenatal developmental toxicity study, sprague dawley, Oral, Gavage/Intubation, dose end: 15 GD
rabbit [7] = details: Prenatal developmental toxicity study, new zealand white, Oral, Gavage/Intubation, dose end: 19 GD; remark: listed apart in the source
mouse [8] = details: Combined chronic toxicity/carcinogenicity, cd1, Oral, Feed, dose end: 24 month
rat [9] = details: Multigenerational reproductive toxicity study, other, Oral, Feed, dose end: 2 generation
[10] = group: cholinesterase, cholinesterase / cholinesterase / cholinesterase / erythrocyte cholinesterase (che) + cholinesterase / cholinesterase / cholinesterase / …
[11] = group: systemic, systemic / in life observation / body weight / body weight gain + systemic / pathology microscopic / kidney / regeneration
[12] = group: cholinesterase, cholinesterase / cholinesterase / cholinesterase / brain cholinesterase (che) + cholinesterase / cholinesterase / cholinesterase / …
[13] = group: systemic, systemic / hematology / erythrocyte (rbc) count differential / erythrocyte (rbc) + systemic / hematology / hematocrit (hct) / hematocrit (…
[14] = group: systemic, systemic / organ weight / lung / absolute
[15] = group: cholinesterase, cholinesterase / cholinesterase / cholinesterase / plasma cholinesterase (che)
[16] = group: cholinesterase, cholinesterase / cholinesterase / cholinesterase / plasma cholinesterase (che) + cholinesterase / cholinesterase / cholinesterase / brain …
[17] = group: systemic, systemic / in life observation / clinical signs / soft stools
[18] = group: developmental, developmental / developmental malformation / bone / [other] + developmental / developmental malformation / bone / absent + developmental / …
[19] = group: maternal, reproductive / reproductive performance / postimplantation loss / postimplantation loss + systemic / in life observation / body weight / …
[20] = group: developmental, developmental / developmental malformation / bone / exencephaly + developmental / developmental malformation / bone / fused + developmental…
[21] = group: developmental, developmental / developmental malformation / general / [other]
[22] = group: maternal, systemic / in life observation / body weight / body weight + systemic / in life observation / body weight / body weight gain + systemic / in…
[23] = group: developmental, systemic / in life observation / body weight / fetal weight
[24] = group: maternal, reproductive / reproductive performance / implantations / implantations + systemic / in life observation / body weight / body weight gain + …
[25] = group: cholinesterase, cholinesterase / cholinesterase / cholinesterase / brain cholinesterase (che)
[26] = group: cholinesterase, cholinesterase / cholinesterase / cholinesterase / brain cholinesterase (che) + cholinesterase / cholinesterase / cholinesterase / plasma …
[27] = group: systemic, systemic / pathology microscopic / liver / adenoma + systemic / pathology gross / liver / mass
[28] = group: systemic, systemic / pathology microscopic / liver / adenoma + systemic / pathology microscopic / liver / adenoma/carcinoma combined + systemic / …
[29] = group: offspring, systemic / pathology microscopic / ureter / hyperplasia
[30] = group: parental, systemic / in life observation / clinical signs / motor activity

Compound: CCCSP(=O)(OCC)SCCC [Ethoprop]
- LEL (mouse [1]; [10]): 0.306 mg/kg/day
- LOAEL (mouse [1]; [10]): 0.306 mg/kg/day
- NEL (mouse [1]; [10]): 0.032 mg/kg/day
- NOAEL (mouse [1]; [10]): 0.032 mg/kg/day
- LOAEL (mouse [1]; group: systemic, systemic / in life observation / body weight / body weight gain): 4.44 mg/kg/day
- NEL (mouse [1]; [11]): 0.032 mg/kg/day
- NOAEL (mouse [1]; [11]): 0.306 mg/kg/day
- LEL (mouse [1]; group: systemic, systemic / pathology microscopic / kidney / regeneration): 0.306 mg/kg/day
- LEL (rat [2]; [12]): 3 mg/kg/day
- LOAEL (rat [2]; [12]): 3 mg/kg/day
- NEL (rat [2]; [12]): 0.05 mg/kg/day
- NOAEL (rat [2]; [12]): 0.05 mg/kg/day
- LEL (rat [2]; [13]): 20 mg/kg/day
- LOAEL (rat [2]; [13]): 20 mg/kg/day
- NOAEL (rat [2]; [13]): 3 mg/kg/day
- NEL (rat [2]; group: systemic, systemic / organ weight / kidney / relative to body weight + systemic / organ weight / thyroid gland / relative to body weight): 3 mg/kg/day
- LEL (mouse [3]; [10]): 0.254 mg/kg/day
- LOAEL (mouse [3]; [10]): 0.254 mg/kg/day
- NEL (mouse [3]; [10]): 0.026 mg/kg/day
- NOAEL (mouse [3]; [10]): 0.026 mg/kg/day
- LOAEL (mouse [3]; group: systemic, systemic / in life observation / body weight / body weight + systemic / in life observation / body weight / body weight gain): 3.96 mg/kg/day
- NOAEL (mouse [3]; group: systemic, systemic / in life observation / body weight / body weight + systemic / in life observation / body weight / body weight gain + systemic / in…): 0.254 mg/kg/day
- LEL (mouse [3]; [14]): 0.032 mg/kg/day
- NEL (mouse [3]; [14]): < 0.032 mg/kg/day
- LEL (dog; [15]): 0.025 mg/kg/day
- LOAEL (dog; [15]): 0.025 mg/kg/day
- NEL (dog; [16]): 0.01 mg/kg/day
- NOAEL (dog; [16]): 0.01 mg/kg/day
- LEL (dog; [17]): 0.025 mg/kg/day
- LOAEL (dog; [17]): > 1 mg/kg/day
- NEL (dog; [17]): 0.01 mg/kg/day
- NOAEL (dog; [17]): ≥ 1 mg/kg/day

Compound: CCOCCOCC [Ethylene glycol diethyl ether]
- LEL (rabbit [4]; [18]): 100 mg/kg/day
- LOAEL (rabbit [4]; [18]): > 100 mg/kg/day
- NEL (rabbit [4]; [18]): 50 mg/kg/day
- NOAEL (rabbit [4]; [18]): ≥ 100 mg/kg/day
- LEL (rabbit [4]; [19]): 100 mg/kg/day
- LOAEL (rabbit [4]; [19]): > 100 mg/kg/day
- NEL (rabbit [4]; [19]): 50 mg/kg/day
- NOAEL (rabbit [4]; [19]): ≥ 100 mg/kg/day
- LEL (mouse [5]; [20]): 500 mg/kg/day
- LOAEL (mouse [5]; [20]): > 1000 mg/kg/day
- NEL (mouse [5]; [20]): 150 mg/kg/day
- NOAEL (mouse [5]; [20]): ≥ 1000 mg/kg/day
- LEL (mouse [5]; [19]): 1000 mg/kg/day
- LOAEL (mouse [5]; [19]): > 1000 mg/kg/day
- NEL (mouse [5]; [19]): 500 mg/kg/day
- NOAEL (mouse [5]; [19]): ≥ 1000 mg/kg/day

Compound: CN(C)c1ccc(C(=C2C=CC(=[N+](C)C)C=C2)c2ccc(N(C)C)cc2)cc1.[Cl-] [Gentian Violet]
- LEL (rat [6]; [21]): 10 mg/kg/day
- LOAEL (rat [6]; [21]): > 10 mg/kg/day
- NEL (rat [6]; [21]): 5 mg/kg/day
- NOAEL (rat [6]; [21]): ≥ 10 mg/kg/day
- LOAEL (rat [6]; [22]): > 10 mg/kg/day
- NEL (rat [6]; [22]): 2.5 mg/kg/day
- NOAEL (rat [6]; [22]): ≥ 10 mg/kg/day
- LEL (rat [6]; group: maternal, systemic / in life observation / body weight / body weight gain): 5 mg/kg/day
- LEL (rabbit [7]; [23]): 0.5 mg/kg/day
- LOAEL (rabbit [7]; [23]): > 2 mg/kg/day
- NEL (rabbit [7]; [23]): < 0.5 mg/kg/day
- NOAEL (rabbit [7]; [23]): ≥ 2 mg/kg/day
- LEL (rabbit [7]; [24]): 0.5 mg/kg/day
- LOAEL (rabbit [7]; [24]): > 2 mg/kg/day
- NEL (rabbit [7]; [24]): < 0.5 mg/kg/day
- NOAEL (rabbit [7]; [24]): ≥ 2 mg/kg/day

Compound: COc1nn(CSP(=S)(OC)OC)c(=O)s1 [Methidathion]
- LEL (mouse [8]; [25]): 1.6 mg/kg/day
- LOAEL (mouse [8]; [25]): 7.5 mg/kg/day
- NEL (mouse [8]; [26]): 0.46 mg/kg/day
- NOAEL (mouse [8]; [26]): 1.6 mg/kg/day
- LEL (mouse [8]; [27]): 0.46 mg/kg/day
- NEL (mouse [8]; [27]): < 0.46 mg/kg/day
- LOAEL (mouse [8]; [28]): 7.5 mg/kg/day
- NOAEL (mouse [8]; [28]): 1.6 mg/kg/day

Compound: COc1cc(OC)nc(NC(=O)NS(=O)(=O)Nc2ccccc2C(=O)N(C)C)n1 [Orthosulfamuron]
- LEL (rat [9]; [29]): 765 mg/kg/day
- LOAEL (rat [9]; [29]): > 765 mg/kg/day
- NEL (rat [9]; [29]): 205 mg/kg/day
- NOAEL (rat [9]; [29]): ≥ 765 mg/kg/day
- LEL (rat [9]; [30]): 635 mg/kg/day
- LOAEL (rat [9]; [30]): 635 mg/kg/day
- NEL (rat [9]; [30]): 145 mg/kg/day
- NOAEL (rat [9]; [30]): 145 mg/kg/day
